The record followed here is patent US20190124924A1, “FUNGAL CONTROL OF WHITE MOLD” (DOW AGROSCIENCES LLC, priority 2015, published 2019).

Molecules are shown by their SMILES.

Broadly, the inhibition is the relative decrease from the control value, in per cent.

For assay [1], the system named is Sclerotinia sclerotiorum. Kind of assay: Field trials in oilseed rape, incidence of white mold and yield. Format: in vivo. The conditions noted are these: single application; for Yield of Oilseed Rape: untreated 4.08; for Percent (%) Incidence of Sclerotinia sclerotiorum at B65-B67 Growth Stage in Oilseed Rape: untreated 55.
Assay [2] concerns Sclerotinia sclerotiorum. The assay is described as follows: Inhibition of mycelial growth by fungicides in Petri dishes (growth medium + fungicide). The conditions noted are these: for inhibition at 0.1 ppm / inhibition at 1 ppm / inhibition at 10 ppm / inhibition at 100 ppm: Sclerotinia sclerotiorum, 192 h, read-out: Percent (%) Inhibition of Mycelial Growth of Sclerotinia sclerotiorum. It counts as cell-based. As to the method:
Evaluation of Inhibition of Mycelial Growth by Fungicides (Sclerotinia sclerotiorum; Bayer code: […]): The growth inhibition of the fungus (Sclerotinia sclerotiorum) was assessed in Petri dishes containing the growth medium+fungicide at different concentrations. […] The number of sclerotia were counted. A completely randomized design with three replicates was used. Treatments consisted of fungicide compounds including Formula I, fluazinam, thiophanate-methyl, and procymidone.

The test system of assay [3] is Sclerotinia sclerotiorum. Kind of assay: Inhibition of Sclerotinia sclerotiorum on detached soybean leaves. It counts as in vivo. The conditions noted are these: read-out: Percent (%) Inhibition of Sclerotinia sclerotiorum on Detached Soybean Leaves. On the procedure: Evaluation of Inhibition of Sclerotinia sclerotiorum on Detached Soybean Leaves: Detached leaves of soybean were immersed for 3 seconds (s) in fungicide solutions at different concentrations and placed in Petri dishes. […] Symptoms were assessed for percent disease severity. Three leaves per plate with three replicates in a completely randomized design. Treatments consisted of fungicide compounds including Formula I, fluazinam, thiophanate-methyl, and procymidone.

Assay [4] deals with Sclerotinia sclerotiorum. Kind of assay: Field trial in dry bean, incidence of white mold. The conditions noted are these: two applications R5 and R6, untreated 12.5. Format: in vivo. On the procedure: A field trial in dry bean was carried out in the state of Sao Paulo, Brazil. Two applications of the fungicides were done at growth stages R5 (first bloom) and R6 (full bloom) by using a carbon dioxide (CO2) backpack sprayer at an application rate of 600 liters per hectare (Uha). […] Treatments consisted of fungicide compounds including Formula I, fluazinam, thiophanate-methyl, and procymidone.

On to `OC(Cc1ccccc1Cl)(Cn1nc[nH]c1=S)C1(Cl)CC1` (racemic) [Prothioconazole, 2-[(2RS)-2-(1-chlorocyclopropyl)-3-(2-chlorophenyl)-2-hydroxypropyl]-2H-1,2,4-triazole-3(4H)-thione], for which, in assay [1] (150 g ai/ha), the “Yield of Oilseed Rape” value is recorded as 4.4 T/ha and the “Percent (%) Incidence of Sclerotinia sclerotiorum at B65-B67 Growth Stage in Oilseed Rape” value (shortened to “Percent (%) Incidence … in Oilseed Rape”) is 31%. Also, in assay [1] (173 g ai/ha), the “Yield of Oilseed Rape” value is on record as 4.49 T/ha and the “Percent (%) Incidence … in Oilseed Rape” value stood at 20%.

Turning to `O=C(Nc1ccccc1-c1ccc(Cl)cc1)c1cccnc1Cl` [Boscalid, boscalid], in assay [1] (250 g ai/ha), the “Yield of Oilseed Rape” value amounted to 4.34 T/ha and the “Percent (%) Incidence … in Oilseed Rape” value is reported as 4%.

`COc1ccnc(C(=O)N[C@H]2COC(=O)[C@H](Cc3ccccc3)[C@@H](OC(=O)C(C)C)[C@H](C)OC2=O)c1OCOC(=O)C(C)C` [Compound I, (3S,6S,7R,8R)-8-benzyl-3-(3-((isobutyryloxy)methoxy)-4-methoxypicolinamido)-6-methyl-4,9-dioxo-1,5-dioxonan-7-yl isobutyrate]: the “Number of Sclerotinia Formed per Colony” value in assay [2] (0.1 ppm) is reported as 3.33; in assay [2] (1 ppm) it was 2.33; in assay [2] (10 ppm), 1.67; in assay [2] (100 ppm), 1.33. For the same compound, the inhibition at 0.1 ppm was determined as 28.3% in assay [2] and 8.63% in assay [3]. Moreover, the inhibition at 1 ppm in assay [2] is 72.4%; in assay [3] it was 66.1%. Moreover, the inhibition at 10 ppm turned out to be 80.7% in assay [2] and 92.5% in assay [3]. Besides, the inhibition at 100 ppm came to 91% in assay [2] and 100% in assay [3]. Besides, the “Percent (%) Incidence of Sclerotinia sclerotiorum at R7 Growth Stage on Dry Bean” value is given as 3.5% in assay [4] (120 g ai/ha) and 1% in assay [4] (240 g ai/ha). Further, the “Yield of Oilseed Rape” value in assay [1] (100 g ai/ha) is 4.22 T/ha; in assay [1] (130 g ai/ha) it was 4.29 T/ha; in assay [1] (150 g ai/ha), 4.23 T/ha; in assay [1] (200 g ai/ha), 4.48 T/ha. Besides, the “Percent (%) Incidence … in Oilseed Rape” value stood at 24% in assay [1] (100 g ai/ha), 24% in assay [1] (130 g ai/ha), 19% in assay [1] (150 g ai/ha) and 14% in assay [1] (200 g ai/ha).

For `O=[N+]([O-])c1cc(C(F)(F)F)c(Cl)c([N+](=O)[O-])c1Nc1ncc(C(F)(F)F)cc1Cl` [Fluazinam, fluazinam], the “Number of Sclerotinia Formed per Colony” value in assay [2] (0.1 ppm) came out at 5.7; in assay [2] (1 ppm) it was 4.3; in assay [2] (10 ppm) it was 0; in assay [2] (100 ppm), 0. In addition, the inhibition at 0.1 ppm was 59.7% in assay [2] (0.1 ppm, 22° C., 8 days) and 25.9% in assay [3] (0.1 ppm, leaves immersed 3 s). In addition, the inhibition at 1 ppm in assay [2] (1 ppm, 22° C., 8 days) is 71.6%; in assay [3] (1 ppm, leaves immersed 3 s), 53.5%. Further, the inhibition at 10 ppm in assay [2] (10 ppm, 22° C., 8 days) was 82.6%; in assay [3] (10 ppm, leaves immersed 3 s), 66.1%. In addition, the inhibition at 100 ppm in assay [2] (100 ppm, 22° C., 8 days) is 100%; in assay [3] (100 ppm, leaves immersed 3 s) it was 100%. The “Percent (%) Incidence of Sclerotinia sclerotiorum at R7 Growth Stage on Dry Bean” value in assay [4] (500 g ai/ha) amounted to 0.8%.

Turning to `CC12CC1(C)C(=O)N(c1cc(Cl)cc(Cl)c1)C2=O` (centres unmarked) [Procymidone, procymidone], the “Number of Sclerotinia Formed per Colony” value in assay [2] (0.1 ppm) was found to be 18.67; in assay [2] (1 ppm) it was 16.2; in assay [2] (10 ppm), 1.67; in assay [2] (100 ppm), 0. In addition, the inhibition at 0.1 ppm worked out at 10% in assay [2] (0.1 ppm, 22° C., 8 days) and 19.5% in assay [3] (0.1 ppm, leaves immersed 3 s). In addition, the inhibition at 1 ppm in assay [2] (1 ppm, 22° C., 8 days) amounted to 24.5%; in assay [3] (1 ppm, leaves immersed 3 s) it was 59.8%. Further, the inhibition at 10 ppm in assay [2] (10 ppm, 22° C., 8 days) is 68.2%; in assay [3] (10 ppm, leaves immersed 3 s), 85.1%. In addition, the inhibition at 100 ppm in assay [2] (100 ppm, 22° C., 8 days) came to 100%; in assay [3] (100 ppm, leaves immersed 3 s), 100%.

For `COC(=O)NC(=S)Nc1ccccc1NC(=S)NC(=O)OC` [Thiophanate-Methyl, thiophanate-methyl], the “Number of Sclerotinia Formed per Colony” value stood at 19.25 in assay [2] (0.1 ppm), 17.56 in assay [2] (1 ppm), 0 in assay [2] (10 ppm) and 0 in assay [2] (100 ppm). In addition, the inhibition at 0.1 ppm was determined as 0% in assay [2] (0.1 ppm, 22° C., 8 days) and 20.7% in assay [3] (0.1 ppm, leaves immersed 3 s). Moreover, the inhibition at 1 ppm in assay [2] (1 ppm, 22° C., 8 days) came out at 32.2%; in assay [3] (1 ppm, leaves immersed 3 s), 43.1%. For the same compound, the inhibition at 10 ppm in assay [2] (10 ppm, 22° C., 8 days) was 78.3%; in assay [3] (10 ppm, leaves immersed 3 s), 87.4%. In addition, the inhibition at 100 ppm is 100% in assay [2] (100 ppm, 22° C., 8 days) and 100% in assay [3] (100 ppm, leaves immersed 3 s).
